Laboratory results as given in PubChem BioAssay AID1963445 (Molecular Pharmacology Branch, DTP, NCI, 2024).
Several values for one entry are separate records, joined by “and”; a condition that tells them apart may be missing. Identical values can stand only once. Values belong to the compound of their own block, whether it stands above or below them.

System: MCF7 complex spheroid growth, % test/control
Test: Anticancer human tumor MCF7 cell line growth inhibition [Asc];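 note: spheroids exposed to compounds for 7 days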;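 for viability, T/C: 100% = DMSO vehicle control wells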
Conditions: for viability, T/C: stronger effect = lower value
Outline: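 Spheroid model: tumor line + HUVEC + hMSC. Single agents and combinations; top conc. at/near clinical Cmax (10 microM if undetermined), half-log dilutions. DMSO stocks at 800-fold test concentration.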

[1] = curve of first compound, second compound 0.0316 µM
[2] = curve of first compound, second compound 0.1 µM
[3] = curve of first compound, second compound 0.316 µM
[4] = curve of first compound, second compound 1 µM
[5] = second compound 0.0316 µM, first compound 0.00316 µM
[6] = second compound 0.0316 µM, first compound 0.01 µM
[7] = second compound 0.0316 µM, first compound 0.0316 µM
[8] = second compound 0.0316 µM, first compound 0.1 µM
[9] = second compound 0.0316 µM, first compound 0.316 µM
[10] = second compound 0.0316 µM, first compound 1 µM
[11] = second compound 0.1 µM, first compound 0.00316 µM
[12] = second compound 0.1 µM, first compound 0.01 µM
[13] = second compound 0.1 µM, first compound 0.0316 µM
[14] = second compound 0.1 µM, first compound 0.1 µM
[15] = second compound 0.1 µM, first compound 0.316 µM
[16] = second compound 0.1 µM, first compound 1 µM
[17] = second compound 0.316 µM, first compound 0.00316 µM
[18] = second compound 0.316 µM, first compound 0.01 µM
[19] = second compound 0.316 µM, first compound 0.0316 µM
[20] = second compound 0.316 µM, first compound 0.1 µM
[21] = second compound 0.316 µM, first compound 0.316 µM
[22] = second compound 0.316 µM, first compound 1 µM
[23] = second compound 1 µM, first compound 0.00316 µM
[24] = second compound 1 µM, first compound 0.01 µM
[25] = second compound 1 µM, first compound 0.0316 µM
[26] = second compound 1 µM, first compound 0.1 µM
[27] = second compound 1 µM, first compound 0.316 µM
[28] = second compound 1 µM, first compound 1 µM

IC50 [1]: 31.9 nM
IC50 [2]: 38 nM
IC50 [3]: 40 nM
IC50 [4]: 32.8 nM
IC50 (curve of first compound, second compound 3.16 µM): 33 nM
IC50 (curve of first compound, second compound 10 µM): 76.3 nM
SMILES: COc1c(OCCCN2CCOCC2)ccc2c3n(c(=NC(=O)c4cnc(N)nc4)nc12)CCN3 + Cc1c(S(C)(=O)=O)c(-c2cc(F)cc(N3CCN(c4ccc(NS(=O)(=O)c5ccc(NC(CCN6CCC(C(=O)OCCCP(=O)(O)O)CC6)CSc6ccccc6)c(S(=O)(=O)C(F)(F)F)c5)cc4)CC3)c2)c(-c2ccc(Cl)cc2)n1C(C)C
viability, T/C [5]: 89.8%
viability, T/C [6]: 73%
viability, T/C [7]: 48.7%
viability, T/C [8]: 33%
viability, T/C [9]: 12%
viability, T/C [10]: 11.4%
viability, T/C [11]: 77.6%
viability, T/C [12]: 69%
viability, T/C [13]: 53.1%
viability, T/C [14]: 33.2%
viability, T/C [15]: 11.2%
viability, T/C [16]: 9.98%
viability, T/C [17]: 72.9%
viability, T/C [18]: 72.2%
viability, T/C [19]: 53.9%
viability, T/C [20]: 30.3%
viability, T/C [21]: 10.3%
viability, T/C [22]: 11.9%
viability, T/C [23]: 73.6%
viability, T/C [24]: 68%
viability, T/C [25]: 50.5%
viability, T/C [26]: 27.4%
viability, T/C [27]: 12.9%
viability, T/C [28]: 13.1%
viability, T/C (second compound 3.16 µM, first compound 0.00316 µM): 76.5%
viability, T/C (second compound 3.16 µM, first compound 0.01 µM): 64.6%
viability, T/C (second compound 3.16 µM, first compound 0.0316 µM): 52.2%
viability, T/C (second compound 3.16 µM, first compound 0.1 µM): 30.4%
viability, T/C (second compound 3.16 µM, first compound 0.316 µM): 11.8%
viability, T/C (second compound 3.16 µM, first compound 1 µM): 13.4%
viability, T/C (second compound 10 µM, first compound 0.00316 µM): 171%
viability, T/C (second compound 10 µM, first compound 0.01 µM): 164%
viability, T/C (second compound 10 µM, first compound 0.0316 µM): 103%
viability, T/C (second compound 10 µM, first compound 0.1 µM): 34.7%
viability, T/C (second compound 10 µM, first compound 0.316 µM): 14.6%
viability, T/C (second compound 10 µM, first compound 1 µM): 11.9%

IC50 (curve of first compound, second compound 0.00949 µM): > 1000 nM
IC50 (curve of first compound, second compound 0.03 µM): > 1000 nM
IC50 (curve of first compound, second compound 0.0949 µM): < 3.16 nM
IC50 (curve of first compound, second compound 0.3 µM): < 3.16 nM
IC50 (curve of first compound, second compound 0.949 µM): < 3.16 nM
IC50 (curve of first compound, second compound 3 µM): < 3.16 nM
SMILES: O=C(c1ccc(F)c(F)c1Nc1ccc(I)cc1F)N1CC(O)([C@@H]2CCCCN2)C1 + CCN1C(C(=O)NC23CCC(C(=O)O)(CC2)CC3)C(c2cccc(Cl)c2F)C2(C(=O)Nc3cc(Cl)ccc32)C12CCCCC2
viability, T/C (second compound 0.00949 µM, first compound 0.00316 µM): 104%
viability, T/C (second compound 0.00949 µM, first compound 0.01 µM): 101%
viability, T/C (second compound 0.00949 µM, first compound 0.0316 µM): 111%
viability, T/C (second compound 0.00949 µM, first compound 0.1 µM): 97.2%
viability, T/C (second compound 0.00949 µM, first compound 0.316 µM): 94.9%
viability, T/C (second compound 0.00949 µM, first compound 1 µM): 100%
viability, T/C (second compound 0.03 µM, first compound 0.00316 µM): 105%
viability, T/C (second compound 0.03 µM, first compound 0.01 µM): 99.4%
viability, T/C (second compound 0.03 µM, first compound 0.0316 µM): 93.9%
viability, T/C (second compound 0.03 µM, first compound 0.1 µM): 96.6%
viability, T/C (second compound 0.03 µM, first compound 0.316 µM): 81.4%
viability, T/C (second compound 0.03 µM, first compound 1 µM): 63.5%
viability, T/C (second compound 0.0949 µM, first compound 0.00316 µM): 50.6%
viability, T/C (second compound 0.0949 µM, first compound 0.01 µM): 44%
viability, T/C (second compound 0.0949 µM, first compound 0.0316 µM): 46.5%
viability, T/C (second compound 0.0949 µM, first compound 0.1 µM): 44.4%
viability, T/C (second compound 0.0949 µM, first compound 0.316 µM): 44.8%
viability, T/C (second compound 0.0949 µM, first compound 1 µM): 38.7%
viability, T/C (second compound 0.3 µM, first compound 0.00316 µM): 32.1%
viability, T/C (second compound 0.3 µM, first compound 0.01 µM): 28%
viability, T/C (second compound 0.3 µM, first compound 0.0316 µM): 26.7%
viability, T/C (second compound 0.3 µM, first compound 0.1 µM): 26.6%
viability, T/C (second compound 0.3 µM, first compound 0.316 µM): 33%
viability, T/C (second compound 0.3 µM, first compound 1 µM): 24.5%
viability, T/C (second compound 0.949 µM, first compound 0.00316 µM): 16.4%
viability, T/C (second compound 0.949 µM, first compound 0.01 µM): 19.6%
viability, T/C (second compound 0.949 µM, first compound 0.0316 µM): 14.8%
viability, T/C (second compound 0.949 µM, first compound 0.1 µM): 15.3%
viability, T/C (second compound 0.949 µM, first compound 0.316 µM): 13.4%
viability, T/C (second compound 0.949 µM, first compound 1 µM): 13.3%
viability, T/C (second compound 3 µM, first compound 0.00316 µM): 14.3%
viability, T/C (second compound 3 µM, first compound 0.01 µM): 14.3%
viability, T/C (second compound 3 µM, first compound 0.0316 µM): 9.2%
viability, T/C (second compound 3 µM, first compound 0.1 µM): 12.3%
viability, T/C (second compound 3 µM, first compound 0.316 µM): 14.2%
viability, T/C (second compound 3 µM, first compound 1 µM): 11%

IC50 (curve of first compound, second compound 0.00316 µM): < 3.16 nM
IC50 (curve of first compound, second compound 0.01 µM): < 3.16 nM
IC50 [1]: < 3.16 nM
IC50 [2]: < 3.16 nM
IC50 [3]: < 3.16 nM
IC50 [4]: < 3.16 nM
SMILES: CCN1CCN(Cc2ccc(Nc3ncc(F)c(-c4cc(F)c5nc(C)n(C(C)C)c5c4)n3)nc2)CC1 + CNC(C)C(=O)NC1CN(S(=O)(=O)c2cccc(S(=O)(=O)N3CCC4CCC(C(=O)NC(c5ccccc5)c5ccccc5)N4C(=O)C(NC(=O)C(C)NC)C3)c2)CCC2CCC(C(=O)NC(c3ccccc3)c3ccccc3)N2C1=O
viability, T/C (second compound 0.00316 µM, first compound 0.00316 µM): 30.3%
viability, T/C (second compound 0.00316 µM, first compound 0.01 µM): 32.9%
viability, T/C (second compound 0.00316 µM, first compound 0.0316 µM): 12.9%
viability, T/C (second compound 0.00316 µM, first compound 0.1 µM): 20.2%
viability, T/C (second compound 0.00316 µM, first compound 0.316 µM): 12.3%
viability, T/C (second compound 0.00316 µM, first compound 1 µM): 14.1%
viability, T/C (second compound 0.01 µM, first compound 0.00316 µM): 17.1%
viability, T/C (second compound 0.01 µM, first compound 0.01 µM): 10.8%
viability, T/C (second compound 0.01 µM, first compound 0.0316 µM): 10.1%
viability, T/C (second compound 0.01 µM, first compound 0.1 µM): 10.1%
viability, T/C (second compound 0.01 µM, first compound 0.316 µM): 10.5%
viability, T/C (second compound 0.01 µM, first compound 1 µM): 11.8%
viability, T/C [5]: 14.4%
viability, T/C [6]: 9.49%
viability, T/C [7]: 9.67%
viability, T/C [8]: 11.8%
viability, T/C [9]: 11.1%
viability, T/C [10]: 10.6%
viability, T/C [11]: 12.2%
viability, T/C [12]: 10.9%
viability, T/C [13]: 10.2%
viability, T/C [14]: 8.76%
viability, T/C [15]: 11.4%
viability, T/C [16]: 10%
viability, T/C [17]: 13.4%
viability, T/C [18]: 13.1%
viability, T/C [19]: 13.2%
viability, T/C [20]: 11.2%
viability, T/C [21]: 8.8%
viability, T/C [22]: 8.66%
viability, T/C [23]: 10.8%
viability, T/C [24]: 12%
viability, T/C [25]: 11.3%
viability, T/C [26]: 10.8%
viability, T/C [27]: 10.7%
viability, T/C [28]: 8.18%

IC50 (curve of compound): > 1000 nM
SMILES: CCN1CCN(Cc2ccc(Nc3ncc(F)c(-c4cc(F)c5nc(C)n(C(C)C)c5c4)n3)nc2)CC1
viability, T/C (compound 0.00316 µM): 111% and 93.3% and 96.7%
viability, T/C (compound 0.01 µM): 95.5% and 104% and 99.9%
viability, T/C (compound 0.0316 µM): 103% and 93.3% and 99.2%
viability, T/C (compound 0.1 µM): 116% and 96.6% and 91.2%
viability, T/C (compound 0.316 µM): 99% and 97% and 81.4%
viability, T/C (compound 1 µM): 74.3% and 86.7% and 72.5%
